Test results taken from PubChem BioAssay (NCI).
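Interpolation was linear, between the two tested concentrations surrounding the appropriate level; five concentrations were tested over 48 hours in 96-well plates. At the TGI there is no net growth.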

Columns and labels:
Test in all cases: NCI anticancer screen, dose series, 48 h
HCT-15 colon = test system: HCT-15 colon
MALME-3M melanoma = test system: MALME-3M melanoma
CCRF-CEM leukemia = test system: CCRF-CEM leukemia
MDA-MB-231 breast = test system: MDA-MB-231 breast
K-562 leukemia = test system: K-562 leukemia
SN12C renal = test system: SN12C renal
SW-620 colon = test system: SW-620 colon
HOP-92 NSCLC = test system: HOP-92 NSCLC
SR leukemia = test system: SR leukemia
EKVX NSCLC = test system: EKVX NSCLC
MDA-N = test system: MDA-N
T-47D breast = test system: T-47D breast
SK-MEL-28 melanoma = test system: SK-MEL-28 melanoma
SNB-19 CNS = test system: SNB-19 CNS
A549 NSCLC = test system: A549 NSCLC
HOP-62 NSCLC = test system: HOP-62 NSCLC
NCI/ADR-RES ovarian = test system: NCI/ADR-RES ovarian
MDA-MB-435 = test system: MDA-MB-435
KM12 colon = test system: KM12 colon
SNB-75 CNS = test system: SNB-75 CNS
HS 578T breast = test system: HS 578T breast
NCI-H460 lung = test system: NCI-H460 lung
U251 CNS = test system: U251 CNS
OVCAR-8 ovarian = test system: OVCAR-8 ovarian
HCT-116 colon = test system: HCT-116 colon
UACC-257 melanoma = test system: UACC-257 melanoma
SK-OV-3 ovarian = test system: SK-OV-3 ovarian
A498 renal = test system: A498 renal
SF-268 CNS = test system: SF-268 CNS
PC-3 prostate = test system: PC-3 prostate
UACC-62 melanoma = test system: UACC-62 melanoma
IGROV1 ovarian = test system: IGROV1 ovarian
HT29 colon = test system: HT29 colon
OVCAR-5 ovarian = test system: OVCAR-5 ovarian
RPMI-8226 leukemia = test system: RPMI-8226 leukemia
MCF7 breast = test system: MCF7 breast
786-0 renal = test system: 786-0 renal
NCI-H23 lung = test system: NCI-H23 lung
SK-MEL-2 melanoma = test system: SK-MEL-2 melanoma
NCI-H226 lung = test system: NCI-H226 lung
COLO 205 colon = test system: COLO 205 colon
SF-295 CNS = test system: SF-295 CNS
SK-MEL-5 melanoma = test system: SK-MEL-5 melanoma
ACHN renal = test system: ACHN renal
OVCAR-4 ovarian = test system: OVCAR-4 ovarian
MOLT-4 leukemia = test system: MOLT-4 leukemia
TK-10 renal = test system: TK-10 renal
NCI-H522 lung = test system: NCI-H522 lung
BT-549 breast = test system: BT-549 breast
M14 melanoma = test system: M14 melanoma
OVCAR-3 ovarian = test system: OVCAR-3 ovarian
DU-145 prostate = test system: DU-145 prostate
SF-539 CNS = test system: SF-539 CNS
LOX IMVI melanoma = test system: LOX IMVI melanoma
RXF 393 renal = test system: RXF 393 renal
CAKI-1 renal = test system: CAKI-1 renal
HCC-2998 colon = test system: HCC-2998 colon
UO-31 renal = test system: UO-31 renal
HL-60(TB) leukemia = test system: HL-60(TB) leukemia

**Q.** With `COc1ccc2c(Cl)cc(NC(=S)Nc3ccccc3)nc2c1` as the compound, how does the TGI (HCT-15 colon) read?
**A.** > 100 µM

**Q.** What about the TGI (MALME-3M melanoma) of the same compound?
**A.** 69.4 µM

**Q.** What about the TGI (CCRF-CEM leukemia) of the same compound?
**A.** 90.9 µM

**Q.** What about the TGI (MDA-MB-231 breast) of the same compound?
**A.** 56.4 µM

**Q.** What about the TGI (K-562 leukemia) of the same compound?
**A.** 60.2 µM

**Q.** And the TGI (SN12C renal)?
**A.** > 100 µM

**Q.** What about the TGI (SW-620 colon) of the same compound?
**A.** 69.1 µM

**Q.** And the TGI (HOP-92 NSCLC)?
**A.** 49.4 µM

**Q.** What about the TGI (SR leukemia) of the same compound?
**A.** 74.5 µM

**Q.** And the TGI (EKVX NSCLC)?
**A.** 63.1 µM

**Q.** What about the TGI (MDA-N) of the same compound?
**A.** 32.4 µM

**Q.** What about the TGI (T-47D breast) of the same compound?
**A.** 45.3 µM

**Q.** What about the TGI (SK-MEL-28 melanoma) of the same compound?
**A.** 97.9 µM

**Q.** And the TGI (SNB-19 CNS)?
**A.** 46.5 µM

**Q.** What about the TGI (A549 NSCLC) of the same compound?
**A.** > 100 µM

**Q.** And the TGI (HOP-62 NSCLC)?
**A.** > 100 µM

**Q.** And the TGI (NCI/ADR-RES ovarian)?
**A.** 54.1 µM

**Q.** And the TGI (MDA-MB-435)?
**A.** 34.6 µM

**Q.** What about the TGI (KM12 colon) of the same compound?
**A.** 37.9 µM

**Q.** What about the TGI (SNB-75 CNS) of the same compound?
**A.** 52.1 µM

**Q.** What about the TGI (HS 578T breast) of the same compound?
**A.** 37.3 µM

**Q.** And the TGI (NCI-H460 lung)?
**A.** > 100 µM

**Q.** What about the TGI (U251 CNS) of the same compound?
**A.** 36.4 µM

**Q.** What about the TGI (OVCAR-8 ovarian) of the same compound?
**A.** 38.4 µM

**Q.** And the TGI (HCT-116 colon)?
**A.** 49.1 µM

**Q.** What about the TGI (UACC-257 melanoma) of the same compound?
**A.** > 100 µM

**Q.** And the TGI (SK-OV-3 ovarian)?
**A.** 61.1 µM

**Q.** And the TGI (A498 renal)?
**A.** 48.1 µM

**Q.** What about the TGI (SF-268 CNS) of the same compound?
**A.** 57.2 µM

**Q.** What about the TGI (PC-3 prostate) of the same compound?
**A.** 66.4 µM

**Q.** What about the TGI (UACC-62 melanoma) of the same compound?
**A.** 46.4 µM

**Q.** And the TGI (IGROV1 ovarian)?
**A.** 54.3 µM

**Q.** What about the TGI (HT29 colon) of the same compound?
**A.** 44.4 µM

**Q.** What about the TGI (OVCAR-5 ovarian) of the same compound?
**A.** 99.6 µM

**Q.** And the TGI (RPMI-8226 leukemia)?
**A.** 59.9 µM

**Q.** And the TGI (MCF7 breast)?
**A.** > 100 µM

**Q.** What about the TGI (786-0 renal) of the same compound?
**A.** 62.7 µM

**Q.** And the TGI (NCI-H23 lung)?
**A.** 73.7 µM

**Q.** What about the TGI (SK-MEL-2 melanoma) of the same compound?
**A.** 55 µM

**Q.** What about the TGI (NCI-H226 lung) of the same compound?
**A.** > 100 µM

**Q.** And the TGI (COLO 205 colon)?
**A.** > 100 µM

**Q.** What about the TGI (SF-295 CNS) of the same compound?
**A.** > 100 µM

**Q.** And the TGI (SK-MEL-5 melanoma)?
**A.** > 100 µM

**Q.** What about the TGI (ACHN renal) of the same compound?
**A.** > 100 µM

**Q.** What about the TGI (OVCAR-4 ovarian) of the same compound?
**A.** > 100 µM

**Q.** What about the TGI (MOLT-4 leukemia) of the same compound?
**A.** 72.2 µM

**Q.** And the TGI (TK-10 renal)?
**A.** > 100 µM

**Q.** And the TGI (NCI-H522 lung)?
**A.** 34.8 µM

**Q.** And the TGI (BT-549 breast)?
**A.** > 100 µM

**Q.** And the TGI (M14 melanoma)?
**A.** 36.6 µM

**Q.** And the TGI (OVCAR-3 ovarian)?
**A.** > 100 µM

**Q.** What about the TGI (DU-145 prostate) of the same compound?
**A.** > 100 µM

**Q.** And the TGI (SF-539 CNS)?
**A.** > 100 µM

**Q.** And the TGI (LOX IMVI melanoma)?
**A.** 44 µM

**Q.** What about the TGI (RXF 393 renal) of the same compound?
**A.** 55.6 µM

**Q.** And the TGI (CAKI-1 renal)?
**A.** > 100 µM

**Q.** `Clc1ccc(Cc2nc3cc(Cl)c(Cl)cc3n2CC2CCCN3CCCCC23)cc1` (stereo not drawn) was tested. Which TGI (HCT-15 colon) did it give?
**A.** 23.3 µM

**Q.** What about the TGI (MALME-3M melanoma) of the same compound?
**A.** 20.9 µM

**Q.** What about the TGI (HCC-2998 colon) of the same compound?
**A.** 14.6 µM

**Q.** What about the TGI (MDA-MB-231 breast) of the same compound?
**A.** 19.3 µM

**Q.** What about the TGI (K-562 leukemia) of the same compound?
**A.** > 100 µM

**Q.** What about the TGI (SN12C renal) of the same compound?
**A.** 25.4 µM

**Q.** What about the TGI (SW-620 colon) of the same compound?
**A.** 31.3 µM

**Q.** What about the TGI (HOP-92 NSCLC) of the same compound?
**A.** 24.9 µM

**Q.** What about the TGI (SR leukemia) of the same compound?
**A.** 15.1 µM

**Q.** And the TGI (EKVX NSCLC)?
**A.** 23 µM

**Q.** And the TGI (MDA-N)?
**A.** 24.2 µM

**Q.** And the TGI (T-47D breast)?
**A.** 64.6 µM

**Q.** And the TGI (SK-MEL-28 melanoma)?
**A.** 20.8 µM

**Q.** What about the TGI (SNB-19 CNS) of the same compound?
**A.** 27.1 µM

**Q.** And the TGI (A549 NSCLC)?
**A.** 26.2 µM

**Q.** And the TGI (HOP-62 NSCLC)?
**A.** 40.8 µM

**Q.** What about the TGI (NCI/ADR-RES ovarian) of the same compound?
**A.** 27.3 µM

**Q.** And the TGI (MDA-MB-435)?
**A.** 40.4 µM

**Q.** What about the TGI (KM12 colon) of the same compound?
**A.** 40 µM

**Q.** And the TGI (SNB-75 CNS)?
**A.** 21.6 µM

**Q.** And the TGI (HS 578T breast)?
**A.** 26.5 µM

**Q.** And the TGI (NCI-H460 lung)?
**A.** 23.2 µM

**Q.** And the TGI (U251 CNS)?
**A.** 20.8 µM

**Q.** And the TGI (UO-31 renal)?
**A.** 1.6 µM

**Q.** What about the TGI (OVCAR-8 ovarian) of the same compound?
**A.** 26.1 µM

**Q.** And the TGI (HCT-116 colon)?
**A.** 21.8 µM

**Q.** And the TGI (UACC-257 melanoma)?
**A.** 13 µM

**Q.** What about the TGI (SK-OV-3 ovarian) of the same compound?
**A.** 32.8 µM

**Q.** What about the TGI (A498 renal) of the same compound?
**A.** 27.5 µM

**Q.** What about the TGI (SF-268 CNS) of the same compound?
**A.** 22.3 µM

**Q.** And the TGI (PC-3 prostate)?
**A.** 21.1 µM

**Q.** And the TGI (UACC-62 melanoma)?
**A.** 21.2 µM

**Q.** And the TGI (IGROV1 ovarian)?
**A.** 21 µM

**Q.** And the TGI (HT29 colon)?
**A.** 13.1 µM

**Q.** What about the TGI (OVCAR-5 ovarian) of the same compound?
**A.** 26 µM

**Q.** What about the TGI (RPMI-8226 leukemia) of the same compound?
**A.** > 100 µM

**Q.** And the TGI (MCF7 breast)?
**A.** 28.3 µM

**Q.** And the TGI (786-0 renal)?
**A.** 23.5 µM

**Q.** And the TGI (SK-MEL-2 melanoma)?
**A.** 29.8 µM

**Q.** And the TGI (NCI-H226 lung)?
**A.** 38 µM

**Q.** What about the TGI (COLO 205 colon) of the same compound?
**A.** 22.3 µM

**Q.** What about the TGI (SF-295 CNS) of the same compound?
**A.** 29.2 µM

**Q.** And the TGI (SK-MEL-5 melanoma)?
**A.** 23.3 µM

**Q.** And the TGI (ACHN renal)?
**A.** 22.2 µM

**Q.** What about the TGI (OVCAR-4 ovarian) of the same compound?
**A.** 79.4 µM

**Q.** And the TGI (MOLT-4 leukemia)?
**A.** > 100 µM

**Q.** What about the TGI (TK-10 renal) of the same compound?
**A.** 27.7 µM

**Q.** What about the TGI (NCI-H522 lung) of the same compound?
**A.** 24.6 µM

**Q.** And the TGI (BT-549 breast)?
**A.** 26.1 µM

**Q.** What about the TGI (M14 melanoma) of the same compound?
**A.** 7.95 µM

**Q.** What about the TGI (HL-60(TB) leukemia) of the same compound?
**A.** 25.4 µM

**Q.** What about the TGI (OVCAR-3 ovarian) of the same compound?
**A.** 28.5 µM

**Q.** And the TGI (DU-145 prostate)?
**A.** 26.2 µM

**Q.** And the TGI (SF-539 CNS)?
**A.** 22.3 µM

**Q.** What about the TGI (LOX IMVI melanoma) of the same compound?
**A.** 19.4 µM

**Q.** And the TGI (RXF 393 renal)?
**A.** 37.6 µM

**Q.** And the TGI (CAKI-1 renal)?
**A.** 34.1 µM
